Test results taken from PubChem BioAssay (NCI).
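How tested: cells in 96-well plates exposed to compound for 48 hours at five concentrations. GI50: concentration for 50% inhibition of growth. TGI: concentration producing complete growth inhibition.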

Experiments:
Assay in all cases: NCI anticancer screen, dose series, 48 h
[1] = test system: BT-549 breast
[2] = test system: MCF7 breast
[3] = test system: CCRF-CEM leukemia
[4] = test system: NCI-H522 lung
[5] = test system: HCT-15 colon
[6] = test system: NCI/ADR-RES ovarian
[7] = test system: SK-MEL-2 melanoma
[8] = test system: U251 CNS
[9] = test system: OVCAR-3 ovarian
[10] = test system: HOP-92 NSCLC

Compound | GI50 [1] | TGI [1] | GI50 [2] | TGI [2] | GI50 [3] | TGI [3] | GI50 [4] | TGI [4] | GI50 [5] | TGI [5] | GI50 [6] | TGI [6] | GI50 [7] | TGI [7] | GI50 [8] | TGI [8] | GI50 [9] | TGI [9] | GI50 [10] | TGI [10]
Cc1cn2c(/C=N/N=C(N)N)c(-c3ccsc3)nc2s1 | 15 µM | 29.5 µM | 3.43 µM | 14.8 µM | 2.54 µM | 6.21 µM | 28.4 µM | > 100 µM | 7.81 µM | 21.6 µM | 22.5 µM | 51.5 µM | 28.3 µM | > 100 µM | 2.08 µM | 5.95 µM | 4.02 µM | 13.4 µM |  | 
COc1ccc(/C(=N/O)c2cc(OC)c(OC)c(OC)c2)c(OC)c1N | 8.79 µM | > 100 µM | 3.26 µM | > 100 µM | 4.09 µM | > 100 µM | 4.02 µM | > 100 µM | 3.87 µM | > 100 µM |  |  | > 100 µM | > 100 µM | 5.65 µM | > 100 µM |  |  | > 100 µM | > 100 µM
CCOP(=O)(CC(=O)C1=C(O)C(CCCCNC(=O)OC(C)(C)C)N(Cc2ccccc2)C1=O)OCC (stereo unspecified) |  |  |  |  |  | > 100 µM |  | > 100 µM |  |  |  |  |  | > 100 µM |  | > 100 µM |  | > 100 µM |  | 
COc1cc2c(cc1OC)[C@@H]([C@H](O)c1ccccc1)NCC2 |  |  |  |  |  | > 100 µM |  | > 100 µM |  | > 100 µM |  |  |  | > 100 µM |  | > 100 µM |  | > 100 µM |  | > 100 µM
CN(C)CCOc1ccc(-c2cc(-c3ccc4c(c3)CC/C4=N\O)c(-c3ccncc3)o2)cc1 | 4.35 µM | 8.03 µM | 5.02 µM | 10.1 µM | 3.76 µM | 13.3 µM | 3.73 µM | 8.02 µM | 3.35 µM | 7.09 µM | 5.05 µM | 11 µM | 0.281 µM | 3.54 µM | 2.41 µM | 5.55 µM | 4.38 µM | 8.16 µM |  | 
Clc1ccc(C2=NOC3C4CCC(C4)C23)cc1 (stereo unspecified) |  |  |  |  |  | > 100 µM |  | > 100 µM |  | > 100 µM |  |  |  | > 100 µM |  | > 100 µM |  | > 100 µM |  | > 100 µM
Cc1ccc(S(=O)(=O)SCc2ccccc2)cc1 |  |  |  |  |  | 7.25 µM |  | 20.9 µM |  | 28.6 µM |  |  |  | > 75.6 µM |  | 58.8 µM |  | 45.5 µM |  | 60.9 µM
CN1C(=O)C(=CN(C)c2ccccc2)C(=O)N(C)C1=O |  |  |  |  |  | > 100 µM |  |  |  | > 100 µM |  |  |  | > 100 µM |  | > 100 µM |  | > 100 µM |  | 
Cc1ccc(C)c2c(N=Nc3ccccc3[N+](=O)[O-])c(O)[nH]c12 |  | > 100 µM |  | > 100 µM |  | > 100 µM |  | > 100 µM |  | > 100 µM |  |  |  | > 100 µM |  | > 100 µM |  | > 100 µM |  | > 100 µM
COc1ccc2c(c1)CCN1C3=C(CCC3)C(=O)C[C@@H]21 |  |  |  |  |  | > 100 µM |  | > 100 µM |  | > 100 µM |  |  |  | > 100 µM |  | > 100 µM |  | > 100 µM |  | > 100 µM
COc1ccc(C(=O)OC2C(OC3C(O)COC(O[C@H]4C[C@H]5[C@@H]6CC=C7C[C@@H](O)CC[C@]7(C)[C@H]6CC[C@]5(C)[C@H]4[C@H](C)C(=O)CCC(C)C)C3OC(C)=O)OCC(O)C2O)cc1 (stereo partly specified) | < 0.003 µM | 2.18 µM | < 0.003 µM | 0.532 µM |  |  | < 0.003 µM | 0.0173 µM | 0.023 µM | 0.628 µM | 7.49 µM | 30 µM | < 0.003 µM | 0.0101 µM | < 0.003 µM | 3.86 µM | 0.0533 µM | 6.88 µM | 0.00636 µM | 1.43 µM
O=C(Sc1sc(=S)sc1SC(=O)c1ccccc1)c1ccccc1 |  |  |  |  |  | > 100 µM |  | > 100 µM |  | > 100 µM |  |  |  | > 100 µM |  | 80.7 µM |  | > 100 µM |  | > 100 µM
Cc1cc(NS(=O)(=O)c2ccc(Nc3c4ccccc4nc4c(C(=O)Nc5ccc(S(=O)(=O)N=C(N)N)cc5)ccc(Cl)c34)cc2)no1 |  |  |  |  |  |  |  | 33.2 µM |  |  |  |  |  |  |  | > 100 µM |  | 63.2 µM |  | 
CCCCN1CCN(c2ccc3nc(-c4ccc5nc(-c6ccc(OCC)c(OCC)c6)[nH]c5c4)[nH]c3c2)CC1 |  |  |  |  | 0.538 µM | 3.06 µM | 1.2 µM | 3.97 µM | 1.56 µM | 3.32 µM | > 100 µM | > 100 µM |  |  | 1.28 µM | 2.69 µM | 0.358 µM | 0.85 µM | 1.23 µM | 3.17 µM
Cn1c(C(C)(C)OC(=O)Oc2ccccc2)cnc1[N+](=O)[O-] |  | > 100 µM |  | > 100 µM |  |  |  | > 100 µM |  | > 100 µM |  | > 100 µM |  | > 100 µM |  | > 100 µM |  | > 100 µM |  | > 100 µM
COc1ccc(C#CC2=C(c3cc(OC)c(OC)c(OC)c3)C(=O)OC2)cc1 | 2.13 µM | 15.7 µM | 0.948 µM | > 50 µM | 1.03 µM | > 50 µM | 8.6 µM | > 50 µM | 1.99 µM | > 50 µM | 5.82 µM | 27.9 µM | 42.5 µM | > 50 µM | 1.64 µM | 6.74 µM | 1.59 µM | 10.3 µM |  | 
N#C/C(=C\c1cccc2cnccc12)N1N=NC2C=CC=CC21 (stereo unspecified) | 2.97 µM | > 100 µM | 0.557 µM | > 100 µM |  |  | 2 µM | > 100 µM | 1.74 µM | > 100 µM | 3.53 µM | > 100 µM | 4.49 µM | > 100 µM | 3.88 µM | > 100 µM | 1.91 µM | 4.88 µM | 0.532 µM | 5.13 µM
Cc1cc(NS(=O)(=O)c2ccc(NC(=O)COC(=O)c3cccc4c(=O)c5ccccc5[nH]c34)cc2)no1 |  |  |  |  |  | > 100 µM |  | > 100 µM |  | > 100 µM |  |  |  |  |  | > 100 µM |  | > 100 µM |  | > 100 µM
Brc1ccc(C2SCc3nc4ccccc4n32)cc1 (stereo unspecified) |  |  |  |  |  | > 100 µM |  | 12.4 µM |  | 24.3 µM |  |  |  | 30.4 µM |  | 25.2 µM |  | 17 µM |  | 9.66 µM
O=C(COc1ccc(-c2nc3cc(Cl)c(Cl)cc3[nH]2)cc1)N=Nc1c(O)[nH]c2ccccc12 | 12.7 µM | 59 µM |  |  | 0.749 µM | > 100 µM | 2.55 µM | > 100 µM | > 100 µM | > 100 µM | > 100 µM | > 100 µM | 3.84 µM | 24.1 µM | 0.564 µM | 2.1 µM | 2.7 µM | > 100 µM | 1.59 µM | 5.22 µM
O=C1CCC2(c3ccccc3)Nc3ccc(Cl)cc3N12 (stereo unspecified) |  |  |  |  |  | > 100 µM |  | > 100 µM |  | > 100 µM |  |  |  | > 100 µM |  | > 100 µM |  | > 100 µM |  | > 100 µM
O=S(=O)(NCCO)c1cc[c]([Sb](=[O])([OH])[OH])cc1 | > 100 µM | > 100 µM |  |  |  |  | > 100 µM | > 100 µM | > 100 µM | > 100 µM | > 100 µM | > 100 µM | > 100 µM | > 100 µM | > 100 µM | > 100 µM | > 100 µM | > 100 µM | > 100 µM | > 100 µM
CCOC(=O)c1nc2cc(C(F)(F)F)ccc2[n+]([O-])c1C | > 100 µM | > 100 µM | > 100 µM | > 100 µM | 0.159 µM | 0.533 µM | > 100 µM | > 100 µM | > 100 µM | > 100 µM | > 100 µM | > 100 µM | > 100 µM | > 100 µM | > 100 µM | > 100 µM | > 100 µM | > 100 µM |  | 
O=C(NC(=O)c1cc2cc(Br)cc(Br)c2oc1=O)Oc1ccccc1 |  |  |  |  |  | > 100 µM |  |  |  | > 100 µM |  |  |  |  |  | > 100 µM |  | > 100 µM |  | > 100 µM
Cc1ccc2c(CC(=O)O)cc(=O)oc2c1 |  |  |  |  |  | > 100 µM |  | > 100 µM |  | > 100 µM |  |  |  | > 100 µM |  | > 100 µM |  | > 100 µM |  | > 100 µM
CCN(CC)CCC(=O)/C=C/c1ccc(C)cc1 |  |  |  |  |  | 56.1 µM |  |  |  | 36.3 µM |  |  |  |  |  | 22.3 µM |  | 31.1 µM |  | 35.4 µM
C[n+]1c(/C=C/c2ccc(/C=N/NC(=O)c3ccc(C(=O)N/N=C/c4ccc(/C=C/c5cn6ccccc6[n+]5C)cc4)cc3)cc2)cn2ccccc21 |  | > 100 µM |  | > 100 µM |  | 49.8 µM |  |  |  | > 100 µM |  | > 100 µM |  |  |  | > 100 µM |  | > 100 µM |  | > 100 µM
COc1cc(NC(C)CCCN)c2ncccc2c1Sc1ccc(Cl)cc1 (stereo unspecified) |  |  | 1.76 µM | 3.19 µM | 1.77 µM | 4.96 µM |  |  | 1.89 µM | 3.67 µM | 1.77 µM | 3.42 µM | 1.85 µM | 3.4 µM | 1.51 µM | 2.83 µM | 1.77 µM | 3.28 µM | 1.37 µM | 3.48 µM
COc1cc2ccc(CC(N)=O)cc2cc1OC |  |  |  |  |  | > 100 µM |  | > 100 µM |  | > 100 µM |  |  |  | > 100 µM |  | > 100 µM |  | > 100 µM |  | > 100 µM
